Measurements from patent US10632106B2, “Methods of cancer treatment with 2-(1′H-Indole-3′-carbonyl)-thiazole-4-carboxylic acid methyl ester” (Ariagen, Inc., priority 2009, dated 2020).
Marks after values point to notes of the source that are not given here.

Key:
[1] = system: human liver cancer cell line HepG2 xenografts; assay: HepG2 xenograft growth inhibition in nude mice; format: in vivo; settings: 80 mg/kg i.p. once daily
Procedure: All the procedures related to animal handling, care, and the treatment in the study were performed following guidelines approved by an Institutional Animal Care and Use Committee (IACUC) of Crown Bioscience, Inc. (Santa Clara, Calif., USA, a contract research organization we hired) based on the guidance of the Association for Assessment and Accreditation of Laboratory Animal Care (AAALAC). Animals were checked for any effects of tumor growth and drug treatment on normal behavior such as mobility, food and water consumption, body weight gain/loss (gross body weights were measured twice weekly), eye/hair matting, and any other abnormal effect. Death and observed clinical signs were recorded on the basis of the number of animals within each group. Individual animals with a tumor volume exceeding 3,000 mm^3 or animals of a group with a mean tumor volume exceeding 2,000 mm^3 were euthanized. In addition, animals showing signs of severe distress and/or pain, dropping body weight more than 20% from that at the start of treatment, or losing the capability of accessing adequate food or water were humanely sacrificed.
Each mouse was inoculated subcutaneously at the right flank with the LNCaP cells (1×10^7) in 0.1 ml of PBS for tumor development. When a mean tumor volume reached around 150 mm^3, the tumor-bearing mice were divided into homogeneous blocks based on their tumor volumes followed by a randomization of mice in each block into treatment groups (thus minimizing variations in tumor response to treatments due to the differential in initial mean tumor volumes). Each treatment group was consisted of 8 tumor-bearing mice. Vehicle (DMSO) or ITE in the vehicle at specified doses were administered to the mice by either i.p. (intraperitoneal) or p.o. (oral) injection once or twice daily for 28 continuous days as indicated.
Tumor volume was measured twice weekly in two dimensions using a caliper and the volume was calculated with a formula of: V=0.5 a×b^2, where a and b are the long and short diameter (in mm) of a tumor, respectively. The tumor volume was then used for calculations of both TGI (Tumor Growth Inhibition) and TGD (Tumor Growth Delay). The TGI was determined by: TGI=ΔT/ΔC×100%, where ΔT was a difference between the mean tumor volume at a specified day of observation and that at the day treatment starts (day 1) for a drug treated group whereas ΔC was the same difference measured for the control group. The TGD was calculated as: TGD=T−C, where T was the time (in days) required for tumors in a drug treated group to reach a predetermined mean tumor volume and C the time (in days) in the control group to reach the same volume. A tumor weight was derived by equating 1,000 mm^3 in volume to 1,000 mg in weight. A net body weight was then derived by subtracting a tumor weight from a corresponding gross body weight with the tumor.
Summary statistics, including mean and the standard error of the mean (SEM), are provided for the tumor volume of each group at each time point. Statistical analysis of difference in tumor volume among groups was conducted on a data set either at the best therapeutic time point or at the final dosing day as indicated. The tumor volume data were log-transformed and evaluated using a one-way ANOVA followed by Tukey's test when significance was observed. All data were analyzed using SPSS 16.0 and p<0.05 was considered to be statistically significant.
The culture and inoculation of human prostate cancer cell line LNCaP were as described in Example 1. The manipulation for human liver cancer cell line HepG2 (ATCC) was similar as that for LNCaP except that DMEM (instead of RPMI-1640) medium was used, the L-glutamine was not used, and 2×10^6 cells were used for inoculation into female nude mice. The handling of human ovarian cancer cell line OVCAR-3 (ATCC) was the same as that of LNCaP except that the DMEM medium was used and 5×10^6 cells were used for inoculation into female nude mice. […]

[2] = ITE toxicity monitoring, 7-day i.p. dosing of ITE nano-suspension in C57BL/6 mice; format: in vivo; settings: for #LYMPH / #NEUT / ALT / AST / BUN / NEUT / PLT / TP / WBC: group mean
Procedure: ITE nano-suspension was prepared by milling ITE powder in water containing 1% CMC-Na (sodium carboxymethyl cellulose), 0.5% SLS (sodium lauryl sulfate), 0.085% PVP K90 (polyvinylpyrrolidone K90), and 0.2% Benzoate with a Media Wet Milling Machine (Dispermat SL-nano, WAB Willy A. Bachofen A G, Muttenz, Switzerland) until reached a desired size range. The particle size was determined by a Laser Diffraction Particle Size Analyzer (MS2000, Malvern Instruments, Worcestershire, UK). The parameters of particle sizes were determined as D10 (diameter of 10% of particles)=67 nm, D50=114 nm, and D90=207 nm. The nano-suspension thus prepared was stored at 4° C. until use.
Female C57BL/6 mice, 6 to 8 week old, were randomly assigned to 4 dose groups (0, 20, 100, and 500 mg/kg b.w.) each with 6 animals. ITE nano-suspension was administered by i.p. injection once daily for 7 consecutive days. Mortality, clinical signs, body weight, and food consumption were recorded. Data on hematology (3 of 6 mice) and serum chemistry (the other 3 of 6 mice) were collected. TK (Toxicokinetic) parameters were determined as described in Example 1 and plasma levels of ITE at both 1 and 3 hr. post dosing on day 1, 3, and 7 were measured. A gross observation of major organs at necropsy was conducted.

[3] = 20 mg/kg ITE nano-suspension i.p. once daily 7 days
[4] = 100 mg/kg ITE nano-suspension i.p. once daily 7 days
[5] = 500 mg/kg ITE nano-suspension i.p. once daily 7 days
[6] = ITE nano-suspension 20, 100, 500 mg/kg b.w. i.p. once daily for 7 days

## COC(=O)c1csc(C(=O)c2c[nH]c3ccccc23)n1 [ITE, 2-(1′H-indole-3′-carbonyl)-thiazole-4-carboxylic acid methyl ester]
[1]
  net body weight loss: no obvious net body weight loss
[1]; at a tumor volume of 800 mm^3
  TGD (Tumor Growth Delay): 29 days
[1]; day 22, TGI=ΔT/ΔC×100%
  TGI (Tumor Growth Inhibition): 25%
[2]; 20 mg/kg (low dose) group
  BUN raised over vehicle: 1.4 folds
[2]; [3]
  #LYMPH: 3.35 ×10^9 cells
  #NEUT: 1.08 ×10^9 cells
  ALT: 43.2 U/L
  AST: 118.1 U/L
  BUN: 10.5* mmol/L
  NEUT: 23.3%
  PLT: 435 ×10^9 cells
  TP: 39.5 g/L
  WBC: 4.68 ×10^9 cells
[2]; 100 mg/kg (mid) group
  WBC raised: 2.6 folds
[2]; [4]
  #LYMPH: 3.5 ×10^9 cells
  #NEUT: 3.62 ×10^9 cells
  ALT: 33.2 U/L
  AST: 131.6 U/L
  BUN: 7.3 mmol/L
  NEUT: 46.6%
  PLT: 668 ×10^9 cells
  TP: 40.8 g/L
  WBC: 10.77* ×10^9 cells
[2]; 500 mg/kg (high dose) group
  ALT raised over vehicle control: 3.2 folds
  TP (total protein) raised over vehicle control: 1.2 folds
[2]; 500 mg/kg (high dose) group, not significant
  AST raised over vehicle control: 1.8 folds
[2]; 500 mg/kg (high) group, not significant
  WBC raised: 2.0 folds
[2]; [5]
  #LYMPH: 4.81 ×10^9 cells
  #NEUT: 3.4 ×10^9 cells
  ALT: 74.5* U/L
  AST: 151.2 U/L
  BUN: 9.1 mmol/L
  NEUT: 40.5%
  PLT: 1075 ×10^9 cells
  TP: 49.5* g/L
  WBC: 8.38 ×10^9 cells
[2]; [6]
  body weight loss: no significant body weight loss
  mortality: no mortality observed except that one mouse in 20 mg/kg b.w. (low dose) group died
[2]; all 3 ITE treated groups, day 1 of the study
  food consumption: dramatic decrease in food consumption
[2]; all the ITE treated groups
  major organ inspection at necropsy: No abnormality was observed
